Molecular target: T1, mouse IL-23R (Mus musculus, UniProt Q8K4B4)
T1 sequence (Q8K4B4 24-644): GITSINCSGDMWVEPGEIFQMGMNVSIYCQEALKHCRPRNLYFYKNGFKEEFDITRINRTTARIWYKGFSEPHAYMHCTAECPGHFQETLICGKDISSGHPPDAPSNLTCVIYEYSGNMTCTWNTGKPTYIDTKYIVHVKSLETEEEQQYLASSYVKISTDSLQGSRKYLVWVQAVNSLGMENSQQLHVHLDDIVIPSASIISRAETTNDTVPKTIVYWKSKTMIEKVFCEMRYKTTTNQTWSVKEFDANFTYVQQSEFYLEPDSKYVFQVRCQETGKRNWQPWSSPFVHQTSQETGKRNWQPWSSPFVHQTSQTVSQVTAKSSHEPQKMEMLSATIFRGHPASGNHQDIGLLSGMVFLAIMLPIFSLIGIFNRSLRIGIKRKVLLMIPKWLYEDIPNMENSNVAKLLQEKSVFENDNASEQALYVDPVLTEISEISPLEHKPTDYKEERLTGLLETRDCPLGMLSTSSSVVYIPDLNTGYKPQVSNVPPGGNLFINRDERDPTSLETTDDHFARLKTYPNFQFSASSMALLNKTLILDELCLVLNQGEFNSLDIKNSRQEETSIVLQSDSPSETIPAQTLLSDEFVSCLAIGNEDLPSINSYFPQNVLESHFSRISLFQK
Assay: Competitive mouse ELISA, mouse IL-23 binding to mouse IL-23R
Conditions: mouse IL-23 / mouse IL-23R-Fc; read-out: IC50, Competitive ELISA in mouse system
Description: In this study, we tested if the cyclic polypeptide no. 23.15, cyclic polypeptide no. 23.19 and the isolated polypeptide 23.15-Fc fusion protein could inhibit binding of mouse IL-23 to mouse IL-23R. Mouse IL-23 (p19 Gene Accession #: NM_031252; p40 Gene Accession #: NM_008352), the sequence of which is incorporated herein by reference. Mouse IL-23R (Gene Accession #: NM_144548), the sequence of which is incorporated herein by reference. To do so, we performed the Competitive ELISA.
FIG. 46 is a schematic depiction of the Competitive ELISA in mouse. Recombinant mouse IL-23R-Fc (2 μg/ml) was coated onto microtiter plates as a capture reagent. Mouse IL-23 and polypeptide or isolated peptide-Fc fusion protein were added to compete for binding to the immobilized mouse IL-23R-Fc. Mouse IL-23 that bound to mouse IL-23R-Fc was detected using biotinylated anti-p40 antibody (1:250). The bound anti-p40 antibody was detected using streptavidin-horseradish peroxidase (HRP) (1:500) and 100 μl/well of a tetramethylbenzidine (TMB) substrate was added to measure peroxidase activity. The color was measured at optical density (OD) 450nm. The color intensity was directly proportional to the amount of the bound mouse IL-23 protein.
The isolated polypeptide no. 23.15-Fc fusion protein, cyclic polypeptide no. 23.19 and polypeptide no. […] The IC50 values were calculated.

Structure (SMILES): CSCC[C@@H]1NC(=O)[C@H](C)NC(=O)[C@@H](N)CSSC[C@@H](C(=O)O)NC(=O)[C@H](CCCNC(=N)N)NC(=O)CNC(=O)[C@H](Cc2ccc(O)cc2)NC(=O)[C@H](CC(C)C)NC(=O)[C@H](Cc2c[nH]c3ccccc23)NC(=O)[C@H](Cc2ccc(O)cc2)NC(=O)[C@H](CC(=O)O)NC(=O)[C@H](CCC(N)=O)NC(=O)[C@H](Cc2c[nH]c3ccccc23)NC(=O)[C@H]([C@@H](C)O)NC1=O [23.19]
- IC50: 12.5 µM

Source: patent publication US9605027B2, “Polypeptides that bound to IL-23 receptor and inhibit binding of IL-23 and cell signaling thereof” (Medical Diagnostic Laboratories, LLC, priority 2011, dated 2017)
